This is an account of results in patent US20240270751A1, “Pyrazolopyridinone Compounds” (BeiGene Ltd., priority 2021, published 2024).

Assay [1] addresses DGKζ (Homo sapiens (Human), UniProt Q13574). The assay can be described thus: Biochemical DGK IC50 assay, DGKζ ADP-Glo assay. As to conditions: 0.5 nM enzyme, 140 μM ATP, 80 μM DAG. A digest of the protocol:
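ADP formation measured by ADP-Glo luminescence, with test compounds at final 1.55–10000 nM or 23.3–150000 nM. Enzyme: purified full-length human DGKζ from Sf9 insect cells; substrate: DAG/PS micelles in 25 mM HEPES pH 7.0, 0.5 mM EDTA, octyl glucoside.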

Assay [2] has as its target DGKα (Homo sapiens (Human), UniProt P23743). The assay can be described thus: Biochemical DGK IC50 assay, DGKα ADP-Glo assay. Conditions: 7.5 nM enzyme, 140 μM ATP, 80 μM DAG. Put shortly:
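Compounds at final 1.55˜10000 nM or 23.3˜150000 nM were tested against full-length DGKα. Substrate was lipid micelles of DAG and PS resuspended in 25 mM HEPES pH 7.0 with 0.5 mM EDTA and 160 mM octyl β-D-glucopyranoside. ADP formed was detected by ADP-Glo.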
(ADP-Glo first removes unused ATP, then detects ADP through luciferase.)

The mark [3] stands for this setting: read-out: DGKζ ADP-Glo assay IC50.

Read-outs that look alike come from different tables or passages of the source.

Sequence of DGKζ (Q13574 other isoform, or with tags, fused parts or gaps): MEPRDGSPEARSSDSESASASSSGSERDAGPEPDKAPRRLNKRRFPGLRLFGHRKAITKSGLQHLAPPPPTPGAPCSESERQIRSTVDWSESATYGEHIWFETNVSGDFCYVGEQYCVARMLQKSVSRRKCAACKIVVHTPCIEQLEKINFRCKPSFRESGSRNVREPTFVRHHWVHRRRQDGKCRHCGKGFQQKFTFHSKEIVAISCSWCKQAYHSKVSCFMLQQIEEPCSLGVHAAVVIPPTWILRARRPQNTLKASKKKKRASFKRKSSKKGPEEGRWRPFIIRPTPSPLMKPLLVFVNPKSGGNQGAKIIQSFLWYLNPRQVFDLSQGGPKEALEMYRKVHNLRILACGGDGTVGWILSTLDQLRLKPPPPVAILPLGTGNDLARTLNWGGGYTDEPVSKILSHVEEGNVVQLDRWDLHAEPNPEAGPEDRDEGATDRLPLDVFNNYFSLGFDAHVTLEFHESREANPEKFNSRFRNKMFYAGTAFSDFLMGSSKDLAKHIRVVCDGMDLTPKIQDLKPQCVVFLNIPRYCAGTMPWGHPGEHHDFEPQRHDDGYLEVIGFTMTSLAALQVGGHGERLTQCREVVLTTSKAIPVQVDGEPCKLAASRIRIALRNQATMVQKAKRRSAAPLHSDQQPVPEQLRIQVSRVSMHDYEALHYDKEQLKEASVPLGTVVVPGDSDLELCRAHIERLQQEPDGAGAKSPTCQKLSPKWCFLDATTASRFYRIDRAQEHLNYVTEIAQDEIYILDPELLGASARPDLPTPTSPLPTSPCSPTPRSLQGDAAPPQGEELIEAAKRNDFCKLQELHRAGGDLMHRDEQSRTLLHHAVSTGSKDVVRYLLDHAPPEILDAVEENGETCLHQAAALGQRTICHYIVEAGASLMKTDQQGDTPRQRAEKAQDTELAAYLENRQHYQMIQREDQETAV
Sequence of DGKα (P23743 whole entry): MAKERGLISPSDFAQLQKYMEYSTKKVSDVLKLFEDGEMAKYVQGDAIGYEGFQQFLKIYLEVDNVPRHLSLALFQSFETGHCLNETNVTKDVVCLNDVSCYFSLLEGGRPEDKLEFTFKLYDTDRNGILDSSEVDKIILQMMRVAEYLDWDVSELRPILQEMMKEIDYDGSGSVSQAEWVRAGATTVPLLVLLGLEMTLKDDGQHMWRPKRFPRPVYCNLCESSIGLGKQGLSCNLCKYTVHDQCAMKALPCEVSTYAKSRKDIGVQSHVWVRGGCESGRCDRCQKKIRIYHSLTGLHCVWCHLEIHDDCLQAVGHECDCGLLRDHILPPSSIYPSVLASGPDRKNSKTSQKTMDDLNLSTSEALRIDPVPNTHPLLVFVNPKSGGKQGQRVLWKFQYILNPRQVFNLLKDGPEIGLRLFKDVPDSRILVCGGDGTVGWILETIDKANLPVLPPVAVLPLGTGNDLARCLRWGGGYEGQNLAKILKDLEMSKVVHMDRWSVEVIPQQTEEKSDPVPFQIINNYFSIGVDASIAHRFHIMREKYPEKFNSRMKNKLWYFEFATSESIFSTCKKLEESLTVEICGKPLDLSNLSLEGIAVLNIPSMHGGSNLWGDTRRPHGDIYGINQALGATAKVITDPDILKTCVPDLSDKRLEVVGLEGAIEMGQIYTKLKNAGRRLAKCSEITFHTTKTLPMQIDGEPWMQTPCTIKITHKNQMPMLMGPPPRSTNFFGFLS

Regarding `CC(c1ccc2c(n1)OC(C)(C)CO2)N1C[C@H](C)N(c2cc(=O)n(C)c3cn(CC#N)nc23)C[C@H]1C` (stereo partly drawn) [Compound A325, 2-(7-((2S,5R)-4-(1-(3,3-dimethyl-2,3-dihydro-[1,4]dioxino[2,3-b]pyridin-6-yl)ethyl)-2,5-dimethylpiperazin-1-yl)-4-methyl-5-oxo-4,5-dihydro-2H-pyrazolo[4,3-b]pyridin-2-yl)acetonitrile], the IC50 (as a rule, the point on the concentration scale where inhibition reaches its midpoint) was found to be 89 nM in assay [1] (setting [3]) and 103 µM in assay [2].

Take `C[C@@H]1CN(c2cc(=O)n(C)c3cn(CC#N)nc23)[C@@H](C)CN1C(C)(C)c1ccc(F)cc1` [Compound A297, 2-(7-((2S,5R)-4-(2-(4-fluorophenyl)propan-2-yl)-2,5-dimethylpiperazin-1-yl)-4-methyl-5-oxo-4,5-dihydro-2H-pyrazolo[4,3-b]pyridin-2-yl)acetonitrile]: the IC50 in assay [1] (setting [3]) was greater than 10000 nM; in assay [2], 8.18 µM.

Regarding `COc1c(C(C)N2C[C@H](C)N(c3cc(=O)n(C)c4cn(CC#N)nc34)C[C@H]2C)ccc(F)c1F` (stereo partly shown) [Compound A273], the IC50 in assay [1] (setting [3]) was 5550 nM; in assay [2], greater than 10 µM.

For `CC[C@H]1CN(C(C)c2ccc3nccnc3c2)[C@H](CC)CN1c1cc(=O)n(C)c2cn(CC#N)nc12` (single isomer, unassigned) [Compound A28b], the IC50 in assay [1] (setting [3]) amounted to 463 nM; in assay [2], 0.983 µM.

As to `[2H]c1nc2ccc(C(C)N3C[C@H](C)N(c4cc(=O)n(C)c5cn(CC#N)nc45)C[C@H]3C)cc2nc1[2H]` (stereo partly drawn) [Compound A268, 2-(7-((2S,5R)-2,5-dimethyl-4-(1-(quinoxalin-6-yl-2,3-d2)ethyl)piperazin-1-yl)-4-methyl-5-oxo-4,5-dihydro-2H-pyrazolo[4,3-b]pyridin-2-yl)acetonitrile], the IC50 in assay [1] (DGKζ ADP-Glo assay IC50(nM)) is 133 nM; in assay [2] it was 16.3 µM.

In the case of `CC[C@H]1CN(C(C)c2ccc(F)cc2C(F)F)[C@H](CC)CN1c1cc(=O)n(C)c2cn(CC#N)nc12` (single isomer, unassigned) [Compound A172b], the results for the IC50 in assay [1] (setting [3]) and in assay [2] were 14 nM and 20.4 µM, respectively.

As to `CC[C@H]1CN(C(C)c2ccc(F)cc2OC(F)F)[C@H](CC)CN1c1cc(=O)n(C)c2cn(CC#N)nc12` (single isomer, unassigned) [Compound A171b], the results for the IC50 in assay [1] (setting [3]) and in assay [2] were 1360 nM and greater than 10 µM, respectively.

In the case of `CC[C@H]1CN(C(C)c2ccc(F)cc2Cl)[C@H](CC)CN1c1cc(=O)n(C)c2cn(CC#N)nc12` (stereo partly shown) [Compound A116], the 50% inhibitory concentration (IC50) in assay [1] (setting [3]) stood at 146 nM; in assay [2], 5.76 µM.

In the case of `COc1cnc2cc(C(C)N3C[C@H](C)N(c4cc(=O)n(C)c5cn(CC#N)nc45)C[C@H]3C)ccc2n1` (stereo partly drawn) [Compound A283, 2-(7-((2S,5R)-4-(1-(2-methoxyquinoxalin-6-yl)ethyl)-2,5-dimethylpiperazin-1-yl)-4-methyl-5-oxo-4,5-dihydro-2H-pyrazolo[4,3-b]pyridin-2-yl)acetonitrile], the half-inhibitory concentration (IC50) is 881 nM in assay [1] (setting [3]) and 12.4 µM in assay [2].

For the compound `CC(c1ccc2c(n1)OCCO2)N1C[C@H](C)N(c2cc(=O)n(C)c3cn(CC#N)nc23)C[C@H]1C` (stereo partly drawn) [Compound A324, 2-(7-((2S,5R)-4-(1-(2,3-dihydro-[1,4]dioxino[2,3-b]pyridin-6-yl)ethyl)-2,5-dimethylpiperazin-1-yl)-4-methyl-5-oxo-4,5-dihydro-2H-pyrazolo[4,3-b]pyridin-2-yl)acetonitrile], the IC50 was 4020 nM in assay [1] (setting [3]) and greater than 150 µM in assay [2].

For `CC[C@H]1CN(C(C)c2ccc(CN3CCC(F)(F)CC3)nc2)[C@H](CC)CN1c1cc(=O)n(C)c2cn(CC#N)nc12` (single isomer, unassigned) [Compound A381a], the 50% inhibitory concentration (IC50) in assay [1] (setting [3]) was found to be 290 nM; in assay [2] it was 0.459 µM.
